Assay results taken from PubChem BioAssay AID248 (DTP/NCI, 2004).
Values joined by “and” are separate entries in the source; they are usually repeats but may differ in a detail not shown here. Equal values may be shown once. Inconclusive results and toxic doses are left out. No stated cut-off is given here; in the data, active means T/C of 150% or more; inactive means T/C below 125%.

Test system: L1210 leukemia ip in BDF1 mice, survival T/C
Experiment: NCI In Vivo Anticancer Drug Screen. Data for tumor model L1210 Leukemia (intraperitoneal) in B6D2F1 (BDF1) mice
Details: endpoint: mean survival time, higher = longer survival
Method in brief: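 Survival endpoint. Drug-treated group vs vehicle group, expressed as T divided by C. Tumor passaged by transplantation.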

[1] = dose: 100.0 mg/kg/injection, schedule: Q01DX009 (ip), vehicle: saline with Tween-80
[2] = dose: 200.0 mg/kg/injection, schedule: Q01DX009 (ip), vehicle: saline with Tween-80
[3] = dose: 400.0 mg/kg/injection, schedule: Q01DX009 (ip), vehicle: saline with Tween-80
[4] = dose: 100.0 mg/kg/injection, schedule: Q04DX003 (ip), vehicle: saline
[5] = dose: 200.0 mg/kg/injection, schedule: Q04DX003 (ip), vehicle: saline
[6] = dose: 100.0 mg/kg/injection, schedule: Q04DX002 (ip), vehicle: Klucel (hydroxypropylcellulose) (HPC)
[7] = dose: 200.0 mg/kg/injection, schedule: Q04DX002 (ip), vehicle: Klucel (hydroxypropylcellulose) (HPC)
[8] = dose: 100.0 mg/kg/injection, schedule: Q01DX009 (ip), vehicle: Klucel (hydroxypropylcellulose) (HPC)
[9] = dose: 200.0 mg/kg/injection, schedule: Q01DX009 (ip), vehicle: Klucel (hydroxypropylcellulose) (HPC)
[10] = dose: 400.0 mg/kg/injection, schedule: Q01DX009 (ip), vehicle: Klucel (hydroxypropylcellulose) (HPC)
[11] = dose: 200.0 mg/kg/injection, schedule: Q01DX009 (ip), vehicle: other
[12] = dose: 400.0 mg/kg/injection, schedule: Q01DX009 (ip), vehicle: other
[13] = dose: 100.0 mg/kg/injection, schedule: Q04DX003 (ip), vehicle: Klucel (hydroxypropylcellulose) (HPC)
[14] = dose: 200.0 mg/kg/injection, schedule: Q04DX003 (ip), vehicle: Klucel (hydroxypropylcellulose) (HPC)
[15] = dose: 75.0 mg/kg/injection, schedule: Q01DX001 (ip), vehicle: saline
[16] = dose: 150.0 mg/kg/injection, schedule: Q01DX001 (ip), vehicle: saline
[17] = dose: 50.0 mg/kg/injection, schedule: Q01DX001 (ip), vehicle: carboxymethylcellulose (CMC)
[18] = dose: 100.0 mg/kg/injection, schedule: Q01DX001 (ip), vehicle: carboxymethylcellulose (CMC)

Measured: T/C

COc1ccc(OC)c(NC(=O)c2ccccc2Cl)c1
inactive: [1] 93 % of control and 102 % of control | dose: 100.0 mg/kg/injection, schedule: Q04DX002 (ip), vehicle: saline with Tween-80 103 % of control and 111 % of control | dose: 100.0 mg/kg/injection, schedule: Q04DX003 (ip), vehicle: saline with Tween-80 95 % of control | [2] 94 % of control and 101 % of control | dose: 200.0 mg/kg/injection, schedule: Q04DX002 (ip), vehicle: saline with Tween-80 93 % of control and 100 % of control | dose: 200.0 mg/kg/injection, schedule: Q04DX003 (ip), vehicle: saline with Tween-80 94 % of control | [3] 96 % of control | dose: 400.0 mg/kg/injection, schedule: Q04DX002 (ip), vehicle: saline with Tween-80 103 % of control and 104 % of control | dose: 400.0 mg/kg/injection, schedule: Q04DX003 (ip), vehicle: saline with Tween-80 97 % of control

COc1ccc(CC[N+]2=Cc3cc(OC)c(OC)cc3CC2)cc1OC
inactive: dose: 50.0 mg/kg/injection, schedule: Q01DX009 (ip), vehicle: saline 97 % of control | dose: 100.0 mg/kg/injection, schedule: Q01DX009 (ip), vehicle: saline 105 % of control | [4] 97 % of control | [5] 101 % of control

C=CCc1ccccc1OCC(=O)O
inactive: [6] 91 % of control | [7] 95 % of control | dose: 400.0 mg/kg/injection, schedule: Q04DX002 (ip), vehicle: Klucel (hydroxypropylcellulose) (HPC) 104 % of control

COc1cccc2c1OC1(N3CCOCC3)CCCCC1C2C[N+](=O)[O-] (stereo not drawn)
inactive: [8] 97 % of control | [9] 105 % of control | [10] 94 % of control

COc1ccc(NC(=S)Nc2ccccn2)cc1
inactive: dose: 100.0 mg/kg/injection, schedule: Q01DX009 (ip), vehicle: other 106 % of control | [4] 101 % of control | [11] 97 % of control | [5] 87 % of control | [12] 103 % of control | dose: 400.0 mg/kg/injection, schedule: Q04DX003 (ip), vehicle: saline 98 % of control

CCCCCCCCCC(=O)N/N=C\c1cccc2ccccc12
inactive: dose: 25.0 mg/kg/injection, schedule: Q01DX009 (ip), vehicle: Klucel (hydroxypropylcellulose) (HPC) 90 % of control | dose: 50.0 mg/kg/injection, schedule: Q01DX009 (ip), vehicle: Klucel (hydroxypropylcellulose) (HPC) 103 % of control | [8] 87 % of control

CCCOC(=O)C#CC(=O)OCCC
inactive: dose: 1.56 mg/kg/injection, schedule: Q01DX001 (ip), vehicle: carboxymethylcellulose (CMC) 101 % of control | dose: 1.56 mg/kg/injection, schedule: Q01DX009 (ip), vehicle: carboxymethylcellulose (CMC) 93 % of control | dose: 1.56 mg/kg/injection, schedule: Q04DX002 (ip), vehicle: carboxymethylcellulose (CMC) 92 % of control and 98 % of control | dose: 1.56 mg/kg/injection, schedule: Q04DX003 (ip), vehicle: carboxymethylcellulose (CMC) 101 % of control | dose: 3.13 mg/kg/injection, schedule: Q01DX001 (ip), vehicle: carboxymethylcellulose (CMC) 94 % of control | dose: 3.13 mg/kg/injection, schedule: Q01DX009 (ip), vehicle: carboxymethylcellulose (CMC) 92 % of control and 86 % of control | dose: 3.13 mg/kg/injection, schedule: Q04DX002 (ip), vehicle: carboxymethylcellulose (CMC) 92 % of control and 98 % of control | dose: 3.13 mg/kg/injection, schedule: Q04DX003 (ip), vehicle: carboxymethylcellulose (CMC) 98 % of control | dose: 6.25 mg/kg/injection, schedule: Q01DX001 (ip), vehicle: carboxymethylcellulose (CMC) 97 % of control | dose: 6.25 mg/kg/injection, schedule: Q01DX009 (ip), vehicle: carboxymethylcellulose (CMC) 93 % of control and 89 % of control | dose: 6.25 mg/kg/injection, schedule: Q04DX002 (ip), vehicle: carboxymethylcellulose (CMC) 103 % of control and 104 % of control | dose: 6.25 mg/kg/injection, schedule: Q04DX003 (ip), vehicle: carboxymethylcellulose (CMC) 106 % of control

CCOC(=O)CCC(NC(=O)OCc1ccccc1)C(=O)O (stereo not drawn)
inactive: [13] 91 % of control | [14] 89 % of control

CCCCCCCCCC(C)CCCCCC (stereo not drawn)
inactive: dose: 75.0 mg/kg/injection, schedule: Q01DX001 (ip), vehicle: saline with Tween-80 100 % of control | dose: 150.0 mg/kg/injection, schedule: Q01DX001 (ip), vehicle: saline with Tween-80 116 % of control | dose: 300.0 mg/kg/injection, schedule: Q01DX001 (ip), vehicle: saline with Tween-80 92 % of control

C=C(C)C1(CCCCC)C(=O)NC(=O)NC1=O
inactive: [15] 101 % of control | [16] 98 % of control

COC(=O)C(Nc1ccc([N+](=O)[O-])cc1[N+](=O)[O-])C(O)c1ccccc1 (stereo not drawn)
inactive: dose: 100.0 mg/kg/injection, schedule: Q01DX001 (ip), vehicle: saline 98 % of control | dose: 200.0 mg/kg/injection, schedule: Q01DX001 (ip), vehicle: saline 111 % of control | dose: 400.0 mg/kg/injection, schedule: Q01DX001 (ip), vehicle: saline 93 % of control

COc1ccc(/C(Cc2ccccc2)=N\N=C(N)N)cc1
inactive: dose: 15.0 mg/kg/injection, schedule: Q01DX Z (ip), vehicle: carboxymethylcellulose (CMC) 97 % of control | dose: 30.0 mg/kg/injection, schedule: Q01DX Z (ip), vehicle: carboxymethylcellulose (CMC) 97 % of control | dose: 60.0 mg/kg/injection, schedule: Q01DX Z (ip), vehicle: carboxymethylcellulose (CMC) 97 % of control | dose: 120.0 mg/kg/injection, schedule: Q01DX Z (ip), vehicle: carboxymethylcellulose (CMC) 101 % of control | dose: 240.0 mg/kg/injection, schedule: Q01DX Z (oral), vehicle: carboxymethylcellulose (CMC) 108 % of control | dose: 480.0 mg/kg/injection, schedule: Q01DX Z (oral), vehicle: carboxymethylcellulose (CMC) 104 % of control | dose: 960.0 mg/kg/injection, schedule: Q01DX Z (oral), vehicle: carboxymethylcellulose (CMC) 88 % of control

CN(C)CCN(C)C(=O)C(c1ccccc1)C1CCCCC1 (stereo not drawn)
inactive: [15] 103 % of control | [16] 97 % of control

Cc1cccc(SC(=O)Nc2cc([N+](=O)[O-])ccc2Cl)c1
inactive: [8] 92 % of control | [9] 98 % of control | [10] 88 % of control

CCCCCCCCCC(C)CC1CCCCC1 (stereo not drawn)
inactive: dose: 100.0 mg/kg/injection, schedule: Q01DX001 (ip), vehicle: saline with Tween-80 96 % of control | dose: 200.0 mg/kg/injection, schedule: Q01DX001 (ip), vehicle: saline with Tween-80 96 % of control

c1cc2cc3c(cc2cc1CC1=NCCc2cc4c(cc21)OCO4)OCO3
inactive: dose: 100.0 mg/kg/injection, schedule: Q04DX003 (ip), vehicle: other 94 % of control | [11] 102 % of control | dose: 200.0 mg/kg/injection, schedule: Q04DX003 (ip), vehicle: other 108 % of control | [12] 94 % of control | dose: 400.0 mg/kg/injection, schedule: Q04DX003 (ip), vehicle: other 105 % of control

O=C(O)COc1cc(F)c([N+](=O)[O-])cc1[N+](=O)[O-]
inactive: [6] 90 % of control | [7] 97 % of control

Cc1ccc(C)c(CCCC(=O)O)c1
inactive: [1] 96 % of control | [13] 105 % of control | [2] 93 % of control | [14] 94 % of control | [3] 104 % of control | dose: 400.0 mg/kg/injection, schedule: Q04DX003 (ip), vehicle: Klucel (hydroxypropylcellulose) (HPC) 100 % of control

NC(=O)N/N=C1\CCCCC12CCCCC2
inactive: dose: 100.0 mg/kg/injection, schedule: Q04DX003 (ip), vehicle: acetone 95 % of control | dose: 200.0 mg/kg/injection, schedule: Q04DX003 (ip), vehicle: acetone 103 % of control | dose: 400.0 mg/kg/injection, schedule: Q04DX003 (ip), vehicle: acetone 97 % of control

CCCCCC(Oc1ccc(Cl)cc1Cl)C(=O)O (stereo not drawn)
inactive: [6] 100 % of control | [7] 97 % of control

CCOC(=O)NNC(=O)O
inactive: [17] 108 % of control | [18] 90 % of control

CSCCC1NC(=O)C(C(C)=Nc2ccccc2)=C1O (stereo not drawn)
inactive: [17] 101 % of control | [18] 109 % of control | dose: 200.0 mg/kg/injection, schedule: Q01DX001 (ip), vehicle: carboxymethylcellulose (CMC) 104 % of control | dose: 400.0 mg/kg/injection, schedule: Q01DX001 (ip), vehicle: carboxymethylcellulose (CMC) 104 % of control
